# Test results as given in ChEMBL document CHEMBL4823256 (J Med Chem, 2021).
# Tests used:
# in vitro [1] = settings: human, HEp-2 cells
# in vitro [2] = settings: human, HEp-2 cells; remark: listed apart in the source
# [3] = system: Respiratory syncytial virus; test: microbe, parasite or virus in culture; settings: human respiratory syncytial virus, Primary bronchial epithelial cell, 72 h
# Human orthopneumovirus [4] = test: microbe, parasite or virus in culture; settings: human respiratory syncytial virus, A2, HEp-2, 96 h
# in vivo [5] = settings: chlorocebus sabaeus, iv, 10 mg/kg
# cells [6] = settings: Homo sapiens, Primary bronchial epithelial cell, 48 h
# in vivo [7] = settings: cynomolgus monkey, iv, 10 mg/kg
# cells [8] = settings: Homo sapiens, HEp-2, 48 h
# in vivo [9] = settings: cynomolgus monkey, iv, 10 mg/kg; remark: listed apart in the source
# in vivo [10] = settings: chlorocebus sabaeus, iv, 10 mg/kg; remark: listed apart in the source
# in vivo [11] = settings: cynomolgus monkey, po, 20 mg/kg
# [12] = system: Respiratory syncytial virus; settings: primary bronchial epithelial cell
# in vivo [13] = settings: cynomolgus monkey, iv, 10 mg/kg; remark: listed apart in the source
# clinical [14] = settings: human, in vivo, iv, 75 mg
# clinical [15] = settings: human, in vivo, iv, 75 mg; remark: listed apart in the source
# in vivo [16] = settings: cynomolgus monkey, iv, 10 mg/kg; remark: listed apart in the source
# in vivo [17] = settings: chlorocebus sabaeus, iv, 10 mg/kg; remark: listed apart in the source
# Human orthopneumovirus [18] = settings: hep-2
# in vivo [19] = settings: chlorocebus sabaeus, iv, 10 mg/kg; remark: listed apart in the source
# in vivo [20] = settings: chlorocebus sabaeus, iv, 10 mg/kg; remark: listed apart in the source
# in vivo [21] = settings: cynomolgus monkey, iv, 10 mg/kg; remark: listed apart in the source
# in vivo [22] = settings: Sprague-Dawley, rat, po, 8 mg/kg
# in vitro [23] = settings: human, Caco-2
# Hepatitis C virus = test: microbe, parasite or virus in culture; settings: subtype 1b, Huh-7, 72 h
# in vitro [24] = settings: human, MT4 cells
# in vitro [25] = settings: human, Huh-7 cells
# in vitro [26] = settings: human, Caco-2; remark: listed apart in the source
# in vivo [27] = settings: dog, po
# in vivo [28] = settings: cynomolgus monkey, iv, 20 mg/kg
# in vivo [29] = settings: cynomolgus monkey, iv, 20 mg/kg; remark: listed apart in the source
SMILES,CC50 (in vitro [1]) [µM],selectivity ratio (in vitro [2]; Ratio CC50/EC50),EC50 [3] [µM],EC50 (Human orthopneumovirus [4]) [µM],other results
C[C@H](NP(=O)(OC[C@H]1O[C@@](C#N)(c2ccc3c(N)ncnn23)[C@H](O)[C@@H]1O)Oc1ccccc1)C(=O)OCC(C)(C)C (some centres not stated),11,220,0.53,0.05,
C[C@H](NP(=O)(OC[C@H]1O[C@@](C#N)(c2ccc3c(N)ncnn23)[C@H](O)[C@@H]1O)Oc1ccccc1)C(=O)OC1CCCC1 (some centres not stated),> 80,471,0.35,0.17,
C[C@H](NP(=O)(OC[C@H]1O[C@@](C#N)(c2ccc3c(N)ncnn23)[C@H](O)[C@@H]1O)Oc1ccccc1)C(=O)OCC1CCC1 (some centres not stated),23,,0.13,0.024,selectivity ratio (in vitro [2]): 958
CCC(CC)COC(=O)[C@H](C)N[P@](=O)(OC[C@H]1O[C@@](C#N)(c2ccc3c(N)ncnn23)[C@H](O)[C@@H]1O)Oc1ccccc1 (stereo in doubt),,,,,AUC(0-inf) at 0.5 h (in vivo [5]): 7.9 µM·h; IC50 (cells [6]): 0.14 µM; Cmax at 0.5 h (in vivo [7]): 22.7 µM; IC50 (cells [8]): 0.11 µM; half-life at 0.5 h (in vivo [9]): 24 min; half-life at 0.5 h (in vivo [10]): 48 min; bioavailability (in vivo [11]): < 1%; EC50 [12]: 0.049 µM; Vd at 0.5 h (in vivo [13]): 0.45 L/kg; Cmax at 0.5 h (clinical [14]): 5 µM; Cmax at 1 h (clinical [15]): < 1 µM; AUC(0-inf) at 0.5 h (in vivo [16]): 8.8 µM·h; clearance at 0.5 h (in vivo [17]): 35.5 mL/min/kg; EC50 (Human orthopneumovirus [18]): 0.015 µM; Vd at 0.5 h (in vivo [19]): 0.94 L/kg; Cmax at 0.5 h (in vivo [20]): 12.6 µM; clearance at 0.5 h (in vivo [21]): 32 mL/min/kg
C#C[C@@]1(c2ccc3c(N)ncnn23)O[C@H](COP(=O)(N[C@@H](C)C(=O)OCC(CC)CC)Oc2ccccc2)[C@@H](O)[C@H]1O (some centres not stated),> 100,> 133,,0.75,
C[C@H](NP(=O)(OC[C@H]1O[C@@](C#N)(c2ccc3c(N)ncnn23)[C@H](O)[C@@H]1O)Oc1ccccc1)C(=O)OC1CCC1 (some centres not stated),34,453,0.42,0.075,
CCC(CC)COC(=O)[C@H](C)NP(=O)(N[C@@H](C)C(=O)OCC(CC)CC)OC[C@H]1O[C@@](C#N)(c2ccc3c(N)ncnn23)[C@H](O)[C@@H]1O,36,,0.17,0.31,selectivity ratio (in vitro [2]): 116
CC(C)C(=O)OC[C@H]1O[C@@](C#N)(c2ccc3c(N)ncnn23)[C@H](OC(=O)C(C)C)[C@@H]1OC(=O)C(C)C,81,,,0.26,bioavailability (in vivo [22]): 57%; bioavailability (in vivo [11]): 28%; Papp B→A (in vitro [23]): 1.5 ×10⁻⁶ cm/s
CC(C)OC(=O)[C@H](C)NP(=O)(OC[C@H]1O[C@@](C#N)(c2ccc3c(N)ncnn23)[C@H](O)[C@@H]1O)Oc1ccccc1 (some centres not stated),> 100,> 277,2.5,0.36,
C#C[C@@]1(c2ccc3c(N)ncnn23)O[C@H](CO)[C@@H](O)[C@H]1O,> 100,,,34,EC50 (Hepatitis C virus): > 89 µM; CC50 at 120 h (in vitro [24]): > 50 µM; CC50 at 72 h (in vitro [25]): > 89 µM
CC(C)(C)C(=O)SCCOP(=O)(OCCSC(=O)C(C)(C)C)OC[C@H]1O[C@@](C#N)(c2ccc3c(N)ncnn23)[C@H](O)[C@@H]1O,8.7,,,0.15,selectivity ratio (in vitro [2]): 58
CCC(CC)COC(=O)[C@H](C)N[P@@](=O)(OC[C@H]1O[C@@](C#N)(c2ccc3c(N)ncnn23)[C@H](O)[C@@H]1O)Oc1ccccc1,26,,0.065,0.028,
CCC(CC)OC(=O)[C@H](C)NP(=O)(OC[C@H]1O[C@@](C#N)(c2ccc3c(N)ncnn23)[C@H](O)[C@@H]1O)Oc1ccccc1 (some centres not stated),> 100,323,> 5,0.31,
C[C@H](NP(=O)(OC[C@H]1O[C@@](C#N)(c2ccc3c(N)ncnn23)[C@H](O)[C@@H]1O)Oc1ccccc1)C(=O)OC1CCCCCCC1 (some centres not stated),48,,,0.028,selectivity ratio (in vitro [2]): 1710
C[C@@]1(O)[C@H](O)[C@@H](CO)O[C@@]1(C#N)c1ccc2c(N)ncnn12,> 100,,,> 100,EC50 (Hepatitis C virus): > 89 µM; CC50 at 120 h (in vitro [24]): > 200 µM; CC50 at 72 h (in vitro [25]): > 89 µM
CCOC(=O)[C@H](C)NP(=O)(N[C@@H](C)C(=O)OCC)OC[C@H]1O[C@@](C#N)(c2ccc3c(N)ncnn23)[C@H](O)[C@@H]1O,> 100,> 15,,6.48,
CC(C)[C@H](N)C(=O)OC[C@H]1O[C@@](C#N)(c2ccc3c(N)ncnn23)[C@H](O)[C@@H]1O,> 100,,,1.11,Papp A→B (in vitro [26]): 0.55 ×10⁻⁶ cm/s; Papp B→A (in vitro [23]): 0.45 ×10⁻⁶ cm/s
CCC(CC)COC(=O)[C@H](C)N[P@](=O)(OC[C@H]1O[C@@](C#N)(c2ccc3c(N)ncnn23)[C@H](O)[C@@H]1O)Oc1ccccc1 (stereo in doubt; 18j),,,0.069,0.027,
Nc1ncnn2c([C@@H]3O[C@H](CO)[C@@H](O)[C@H]3O)ccc12,0.036,,,> 50,EC50 (Hepatitis C virus): 0.0035 µM; CC50 at 120 h (in vitro [24]): < 0.01 µM
C[C@H](NP(=O)(OC[C@H]1O[C@@](C#N)(c2ccc3c(N)ncnn23)[C@H](O)[C@@H]1O)Oc1ccccc1)C(=O)OCC1CC1 (some centres not stated),50,,0.62,0.044,selectivity ratio (in vitro [2]): 1140
C[C@H](NP(=O)(OC[C@H]1O[C@@](C#N)(c2ccc3c(N)ncnn23)[C@H](O)[C@@H]1O)Oc1ccccc1)C(=O)OC(C)(C)C (some centres not stated),> 100,> 22,> 5,4.5,
N#C[C@@]1(c2ccc3c(N)ncnn23)O[C@H](CO)[C@@H](O)[C@H]1O [GS-441524],> 100,,1.85,0.53,IC50 (cells [6]): 0.22 µM; bioavailability (in vivo [22]): 12%; IC50 (cells [8]): 0.35 µM; bioavailability (in vivo [27]): 89%; Cmax at 0.5 h (in vivo [28]): 79.2 µM; bioavailability (in vivo [11]): 3.4%; Papp A→B (in vitro [26]): 0.17 ×10⁻⁶ cm/s; AUC(0-inf) at 0.5 h (in vivo [29]): 123 µM·h; CC50 at 120 h (in vitro [24]): > 50 µM; CC50 at 72 h (in vitro [25]): > 89 µM; Papp B→A (in vitro [23]): 2.1 ×10⁻⁶ cm/s
CC(=O)OC[C@H]1O[C@@](C#N)(c2ccc3c(N)ncnn23)[C@H](OC(C)=O)[C@@H]1OC(C)=O,> 100,,,0.82,Papp A→B (in vitro [26]): 0.9 ×10⁻⁶ cm/s; Papp B→A (in vitro [23]): 1.9 ×10⁻⁶ cm/s
C[C@@]1(c2ccc3c(N)ncnn23)O[C@H](CO)[C@@H](O)[C@H]1O,,,,5.5,CC50 at 120 h (in vitro [24]): 4.5 µM; CC50 at 72 h (in vitro [25]): > 45 µM
CCOC(=O)[C@H](C)NP(=O)(OC[C@H]1O[C@@](C#N)(c2ccc3c(N)ncnn23)[C@H](O)[C@@H]1O)Oc1ccccc1 (some centres not stated),> 73,> 243,0.85,0.3,
CCC(=O)OC[C@H]1O[C@@](C#N)(c2ccc3c(N)ncnn23)[C@H](OC(=O)CC)[C@@H]1OC(=O)CC,> 100,,,0.43,Papp A→B (in vitro [26]): < 0.1 ×10⁻⁶ cm/s; Papp B→A (in vitro [23]): 0.26 ×10⁻⁶ cm/s
